Measurements reported in patent US20090162351A1, “Transdiscal administration of inhibitors of p38 MAP kinase” (DePuy Spine, Inc., priority 2007, published 2009).

Tests used:
Format in all cases: cell-based
[1] = system: PGE2 synthesis in injured bovine cartilage explants; assay: Drop tower model: PGE2 synthesis in injured cartilage explants
Description: (§1) In the second method, the explants were cultured at 37° C., 5% CO2 either in stimulated or non-stimulated conditioned medium as described above or in defined medium containing DMEM supplemented with 1% FCS, 1× insulin-transferrin-sodium selenite media supplement and Antibiotics-Antimycotics in the presence or absence of a cocktail of cytokines containing 10 ng/ml of IL-1β, 100 ng/ml of TNFα and 5 ng/ml of IFN-γ. The compounds were solubilized in H2O, Ethanol or DMSO (10^−2 M) according to suppliers' instructions and further diluted with either conditioned medium stimulated with or without LPS to the required concentrations. DMSO concentrations in the culture media never exceeded 1%. This concentration of DMSO has no effect on cartilage proteoglycan metabolism in response to cytokines. The injured and noninjured cartilage explants were treated with compound-containing medium for three to five days. The specimens were first treated with compounds at desired concentrations at 37° C. for one hour and then incubated for three to five days in the absence or presence of the cocktail of cytokines. At the end of the incubation, media and cartilage samples were harvested and frozen for further analysis.
PGE2 was measured with STAT-Prostaglandin E2 EIA ELISA kit (Cayman Biochemicals), as described in Example III above. The antibody-PGE2 complex binds to a goat polyclonal anti-mouse IgG that has been previously attached to the well. After washing to remove any unbound reagents, para-nitrophenyl phosphate (pNPP) was added to the well. The product of this enzymatic reaction absorbs strongly at 412 nm. Because of the large range in response to IL-1β and other cytokines, PGE2 values were converted to log scale prior to doing t-tests.

[2] = system: injured bovine articular cartilage explants in inflammatory medium; assay: Drop tower model: GAG degradation in injured cartilage explants; details: for inhibition at 10 µM: Bos taurus, injured cartilage explants
From the text: In order to assess cartilage breakdown by inflammatory mediators and the effect of antagonists on those mediators, a cartilage impact model (the “drop tower model”) was established using a drop tower device to apply a peak compressive stress to a cartilage sample of about 20-30 MPa over an area of about 11-15 mm^2. Advantages of this model included its clinical relevance due to its potential to mimic several key parameters of osteoarthritis such as inflammatory cell mediators (by co-culturing with inflammatory cells), and induction of trauma to create the cartilage damage.
In the “drop tower design model” cartilage explants were first injured and then cultured in inflammatory medium to mimic the progression of joint impact trauma linked to cartilage degeneration and osteoarthritis. The approach of the model is to artificially produce cellular damage without gross structural alterations, and to determine how the cells respond to such an insult over the ensuing days when treated with or without potential therapeutic agents.
The device comprises a vertical rail that guides a sliding weight from 0.1 kg to 3 kg directly onto a force transducer which is situated at the bottom of the device. A sphere-shaped 2 mm indenter resting on a specimen is located at the bottom of the vertical rail. The indenter is held by a stop screw. The specimen is rigidly attached to a tissue holder underneath the indenter, to avoid side movements, the specimen is rigidly attached to the tissue holder. In this manner, the force transducer transduces a force indirectly onto the specimen. Adjusting the weight of a mass and height from which the mass drops varies the magnitude of the intended impact. For example, a weight mass (e.g., […]) held by a weight holder can be released from a height of e.g., 36 cm and dropped onto the force transducer.
Samples for compound evaluation were tested using either of two different methods to induce inflammatory conditions. One method utilized media conditioned from peripheral blood mononuclear cells (PBMCs) stimulated with LPS (“+LPS”) or non-inflammatory media without LPS (“−LPS”). Another method utilized the absence or presence of a cocktail of cytokines.
In the first method, bovine or human PBMCs were freshly prepared using Ficoll gradient by Lampire Biological Laboratories, Inc. PBMCs in RPMI w/10% FCS at delivery were spun down at 1500 rpm for twenty minutes and the cell pellet was washed twice with 1×PBS to wash off the residual Ficoll. The cells were then resuspended at a density of 1×10^6/ml in RPMI supplemented with 10% FCS, 1× Antibiotics-Antimycotics. The suspension was divided into two aliquots. One aliquot was stimulated with 10 μg/ml of LPS and the other was not stimulated. Both aliquots were then incubated at 37° C., 5% CO2 for twenty-four to seventy-two hours. The conditioned media with or without LPS stimulation are collected, aliquoted, and stored in −80° C. for a maximum of three months. Each conditioned medium was assessed for levels of pro-inflammatory cytokines to ensure their secretion from PBMC. A representative cytokine, IL-6, was assayed by ELISA using a Human IL-6 Quantikine kit and it was shown that the LPS-stimulated medium had at least 10 ng/ml of IL-6, while IL-6 was undetectable in the unstimulated medium.
In the second method, the explants were cultured at 37° C., 5% CO2 either in stimulated or non-stimulated conditioned medium as described above or in defined medium containing DMEM supplemented with 1% FCS, 1× insulin-transferrin-sodium selenite media supplement and Antibiotics-Antimycotics in the presence or absence of a cocktail of cytokines containing 10 ng/ml of IL-1β, 100 ng/ml of TNFα and 5 ng/ml of IFN-γ. The compounds were solubilized in H2O, Ethanol or DMSO (10^−2 M) according to suppliers' instructions and further diluted with either conditioned medium stimulated with or without LPS to the required concentrations. DMSO concentrations in the culture media never exceeded 1%. […]

[3] = system: NO production in injured bovine cartilage explants; assay: Drop tower model: NO production in injured cartilage explants; details: Bos taurus; at 10 μM; injured cartilage explants
Description: as §1
Nitrate/Nitrite was measured using the Griess reaction (Green L. C. et al., “Analysis of Nitrate, Nitrite, and [15N]nitrate in Biological Fluids,” Anal. Biochem. 126: 131-138 (1982)) with a Nitrate/Nitrite Colorimetric Assay Kit (Cayman Chemicals), as described in Example III above.

[4] = system: IL-1β-stimulated PGE2 synthesis in bovine chondrocyte pellets / ARC tissues; assay: Chondrocyte pellet / ARC culture model: Prostaglandin E2 assay; details: Table 3B
From the text: (§2) Calf articular cartilage was obtained from the knee joints of eight to twelve month old animals and was processed within twenty-four hours after sacrifice. After removal of muscle and ligament, the cartilage was kept moist using phosphate buffer solution (PBS) to prevent tissue dehydration, and was aseptically peeled off from subchondral bone with a scalpel, and the cartilage pieces were further minced into smaller pieces (˜0.3-0.5×˜0.2-0.5 cm cubes). […] Chondrocytes were then enzymatically isolated from the tissue by incubation for overnight at 37° C. with gentle agitation in 0.2% collagenase in Dulbecco's modified eagle media (DMEM). After removal of tissue debris by filtration through cell strainer and the residual collagenase by 3× wash in PBS, cells were finally resuspended at a density of 2.5×10^6 cells/ml in chondrocyte medium. A 1 ml aliquot of the cell suspension was dispensed into either a 15 ml Falcon centrifuge tube or a 96 deep-well plate and centrifuged at 2000×g for five minutes. The chondrocyte pellets were incubated at 37° C. in a humidified atmosphere of 5% CO2 for two to three weeks with a medium change every other day.
(§3) As an alternative to using calf articular cartilage, a commercial Aliginate Recovered Chondrocytes (ARC) system was also used (Articular Engineering, LLC (Northbrook, Ill.)). Use of the commercial system cut down on labor and time in producing chondrocyte pellet. This system produced cartilaginous tissue in vitro using bovine chondrocytes. The first step consisted of culturing chondrocytes in alginate under conditions optimal for the formation of a cell-associated matrix (CM). The second step allowed these cells with their CM, after recovery, to rapidly form and become integrated into a solid mass of cartilage on a porous insert within two weeks.
(§4) Chondrocyte pellets were washed once with 1 ml of Chondrocyte Stimulation Medium and equilibrated in the same medium at room temperature for fifteen to thirty minutes. Compounds were dissolved in H2O, Ethanol or dimethyl sulfoxide (DMSO) (10^−2 M) according to suppliers' instructions and further diluted with Chondrocyte Stimulation Medium to the required concentrations. DMSO concentrations in the culture media should not exceed 1%; this concentration of DMSO has no effect on cartilage proteoglycan metabolism in response to cytokines.
(§5) The pellets were first treated with compounds at desired concentrations at 37° C. for one hour and then incubated for three to five days in the absence or presence of 10 ng/ml of IL-1β. At the end of the incubation, media and pellets were harvested and frozen for further analysis. Pellets were also fixed as needed in 4% (w/v) paraformaldehyde in PBS for histology analysis.
Prostaglandin E2 (PGE2) was measured with a STAT-Prostaglandin E2 EIA ELISA kit (Cayman Biochemicals). This assay is based on the competition between PGE2 from 50 μl samples and a PGE2-alkaline phosphatase conjugate for a limited amount of PGE2 monoclonal antibody in a reaction volume of 150 μl at room temperature for one hour. The antibody-PGE2 complex bound to a goat polyclonal anti-mouse IgG that had been previously attached to the well. After washing to remove any unbound reagents, para-nitrophenyl phosphate (pNPP) was added to the well. The product of this enzymatic reaction absorbs strongly at 412 nm. Because of the large range in response to IL-1β and other cytokines, PGE2 values were converted to log scale prior to doing t-tests.
To characterize the relative efficacies among different p38 MAP kinase inhibitors, dose-response curves were generated for both PGE2 and NO assays. […] After one hour of treatment, ARCs were stimulated with or without 7.5 ng/ml IL-1β and continued to incubate for five days before assay. The IL-1β-stimulated PGE2 synthesis or NO production was first calculated by subtraction of PGE2/NO levels in the absence of IL-1β from that in the presence of IL-1β. […]

[5] = system: IL-1β-stimulated NO production in bovine chondrocyte pellets / ARC tissues; assay: Chondrocyte pellet / ARC culture model: total nitrite and nitrate assay; details: Table 3B
From the text: as §2, §3, §4, §5
Nitrate/Nitrite levels were measured using the Griess reaction (Green L. C. et al., “Analysis of Nitrate, Nitrite, and [15N]nitrate in Biological Fluids,” Anal. Biochem. 126: 131-138 (1982)) with a Nitrate/Nitrite Colorimetric Assay Kit (Cayman Chemicals), the contents of which are incorporated herein by reference. The assay involved a simple two-step process. The first step involved conversion of nitrate in 50 μl of culture medium to nitrite utilizing nitrate reductase in a reaction volume of 100 μl at room temperature for two hours. The second step involved the addition of 50 μl of both Griess Reagent 1 and 2, which converted nitrite into a deep purple azo compound in ten minutes. Photometric measurement of the absorbance at 540 or 550 nm due to this azo chromophore accurately determined nitrite concentration. This assay kit cannot be used for RPMI (Roswell Park Memorial Institute) derived tissue culture medium due to interference with the colorimetric reaction.
To characterize the relative efficacies among different p38 MAP kinase inhibitors, dose-response curves were generated for both PGE2 and NO assays. […] After one hour of treatment, ARCs were stimulated with or without 7.5 ng/ml IL-1β and continued to incubate for five days before assay. […]

[6] = system: bovine chondrocyte pellets / ARC tissues stimulated with IL-1β; assay: Chondrocyte pellet / ARC culture model: GAG degradation assay; details: Table 3B
From the text: A chondrocyte pellet culture model was developed for in vitro high throughput screening of therapeutic compounds for inhibition of IL-1β-stimulated matrix degradation. The chondrocyte pellet culture model can be used to detect various potential therapeutic compounds effective in blocking different processes caused by IL-1β stimulation. For example, IL-1β stimulation results in increased glycosaminoglycan (GAG) degradation, prostaglandin E2 (PGE2) synthesis and total nitrite/nitrate production. Compounds with different mechanisms of action may inhibit the increase of one or two or all three of these parameters. For this reason, screening by, for example, measuring only GAG release would be limited to detection of a specific class of inhibitors and may not detect compounds with diversified mechanisms of function which may be involved in inhibition of the IL-1 stimulated inflammatory process. The development of the chondrocyte pellet culture assay system in a 96-well plate made possible large-scale screening of potential therapeutic compounds with different mechanisms of action.
as §2, §3
This tissue is rich in cells surrounded by a cell-associated matrix that is degraded rapidly when the cells are exposed to IL-1. ARC tissues in 3 mm punches at delivery were first dispensed into a 96 deep-well plate, one punch per well, for compound treatment. The subsequent procedures were the same as those used for the chondrocyte pellets.
as §4
The pellets were first treated with compounds at desired concentrations at 37° C. for one hour and then incubated for three to five days in the absence or presence of 10 ng/ml of IL-1β. […]

SMILES	PGE2 synthesis (in words) ([1]; 10 μM, cocktail of cytokines (IL-1β, TNF-α, INF-γ), five days)	Inhibition of PGE2 synthesis (in words) ([1]; Table 4)	inhibition at 10 µM [2] [%]	inhibition at 10 µM [3] [%]	PGE2 Inhibition, Pellet Assay (in words) [4]	NO Inhibition, Pellet Assay (in words) [5]	GAG Release, Pellet Assay (in words) [6]	Inhibition of GAG degradation (in words) ([2]; Table 4, injured cartilage explants, inflammatory conditions)
CNC(=O)[C@H](Cc1ccccc1)NC(=O)[C@H](CC(C)C)[C@H](CSc1cccs1)C(=O)NO [Batimastat, reference compound]	did not inhibit	No effect	100	100				
C[C@H]1[C@H](C)CC[C@]2(C(=O)O[C@@H]3O[C@H](CO[C@@H]4O[C@H](CO)[C@@H](O[C@@H]5O[C@@H](C)[C@H](O)[C@@H](O)[C@H]5O)[C@H](O)[C@H]4O)[C@@H](O)[C@H](O)[C@H]3O)CC[C@]3(C)C(=CC[C@@H]4[C@@]5(C)C[C@@H](O)[C@H](O)[C@@](C)(CO)[C@@H]5[C@H](O)C[C@]43C)[C@H]12 [Madecassoside, reference compound]					No effect	No effect	No effect	
CN1C(C(=O)Nc2ccccn2)=C(O)c2ccccc2S1(=O)=O [Proxicam, reference compound]							No effect	No effect
CC(C(=O)O)c1ccc(C(=O)c2ccccc2)s1 (centres unmarked) [Tiaprofenic Acid, reference compound]			70				No effect	
CC1(C)O[C@@H]2[C@@H](CO[C@@]3(COS(N)(=O)=O)OC(C)(C)O[C@@H]23)O1 [Topramax, reference compound]					No effect	No effect	No effect	
